Calls of active or inactive are those of the source. No cut-off for these calls is given here.
What was measured:
[1] = target: T1, Pancreatic triacylglycerol lipase (Homo sapiens) (UniProt P16233); experiment: Inhibition of pancreatic lipase assessed as effect on oleic acid release from triolein at 1 mg/mL relative to control
T1 sequence (whole entry): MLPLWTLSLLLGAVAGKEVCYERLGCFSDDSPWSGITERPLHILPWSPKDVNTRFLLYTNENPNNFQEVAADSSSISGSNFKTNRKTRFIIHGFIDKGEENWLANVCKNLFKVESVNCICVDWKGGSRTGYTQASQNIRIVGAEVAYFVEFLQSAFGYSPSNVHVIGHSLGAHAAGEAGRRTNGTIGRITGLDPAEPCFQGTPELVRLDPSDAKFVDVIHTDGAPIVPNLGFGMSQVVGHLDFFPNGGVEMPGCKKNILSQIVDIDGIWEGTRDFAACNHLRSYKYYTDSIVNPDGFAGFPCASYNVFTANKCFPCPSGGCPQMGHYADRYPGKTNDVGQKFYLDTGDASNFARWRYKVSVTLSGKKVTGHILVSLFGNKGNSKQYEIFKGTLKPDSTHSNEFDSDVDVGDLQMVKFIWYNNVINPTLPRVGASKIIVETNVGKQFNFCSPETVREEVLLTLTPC

[2] = target: T1, Pancreatic triacylglycerol lipase (Homo sapiens); experiment: Inhibition of pancreatic lipase assessed as effect on oleic acid release from triolein relative to control
[3] = target: T1, Pancreatic triacylglycerol lipase (Homo sapiens); experiment: Inhibition of pancreatic lipase assessed as effect on oleic acid release from triolein at 0.12 mg/mL relative to control
[4] = target: T1, Pancreatic triacylglycerol lipase (Homo sapiens); experiment: Inhibition of pancreatic lipase assessed as effect on oleic acid release from triolein at 0.005 mg/mL relative to control

SMILES	Activity [1]	also measured
C[C@@H]1O[C@@H](O[C@H]2[C@H](O[C@H]3CC[C@]4(C)[C@H]5CC=C6[C@@H]7CC(C)(C)CC[C@]7(C(=O)O[C@@H]7O[C@H](CO[C@@H]8O[C@H](CO)[C@@H](O)[C@H](O)[C@H]8O)[C@@H](O)[C@H](O)[C@H]7O)CC[C@@]6(C)[C@]5(C)CC[C@H]4C3(C)C)OC[C@@H](O)[C@@H]2O)[C@H](O)[C@H](O[C@@H]2OC[C@@H](O)[C@H](O)[C@H]2O)[C@H]1O	Active	–
C[C@@H]1O[C@@H](O[C@H]2[C@H](O[C@H]3CC[C@]4(C)[C@H]5CC=C6[C@@H]7CC(C)(C)CC[C@]7(C(=O)O)CC[C@@]6(C)[C@]5(C)CC[C@H]4C3(C)C)OC[C@H](O)[C@@H]2O)[C@H](O)[C@H](O[C@@H]2OC[C@@H](O[C@@H]3O[C@H](CO)[C@@H](O)[C@H](O)[C@H]3O)[C@H](O)[C@H]2O)[C@H]1O	–	Activity [2]: Active; Activity [3]: Active
CCCCCCCCCCC[C@@H](C[C@@H]1OC(=O)[C@H]1CCCCCC)OC(=O)[C@H](CC(C)C)NC=O	–	Activity [4]: Active
C[C@@H]1O[C@@H](O[C@H]2[C@H](O[C@H]3CC[C@]4(C)[C@H]5CC=C6[C@@H]7CC(C)(C)CC[C@]7(C(=O)O[C@@H]7O[C@H](CO[C@@H]8O[C@H](CO)[C@@H](O)[C@H](O)[C@H]8O)[C@@H](O)[C@H](O)[C@H]7O)CC[C@@]6(C)[C@]5(C)CC[C@H]4C3(C)C)OC[C@@H](O)[C@@H]2O)[C@H](O)[C@H](O[C@@H]2OC[C@@H](O[C@@H]3O[C@H](CO)[C@@H](O[C@@H]4OC[C@@H](O)[C@H](O)[C@H]4O)[C@H](O)[C@H]3O)[C@H](O)[C@H]2O)[C@H]1O	Active	–
C[C@@H]1O[C@@H](O[C@H]2[C@H](O[C@H]3CC[C@]4(C)[C@H]5CC=C6[C@@H]7CC(C)(C)CC[C@]7(C(=O)O[C@@H]7O[C@H](CO[C@@H]8O[C@H](CO)[C@@H](O)[C@H](O)[C@H]8O)[C@@H](O)[C@H](O)[C@H]7O)CC[C@@]6(C)[C@]5(C)CC[C@H]4C3(C)C)OC[C@@H](O)[C@@H]2O)[C@H](O)[C@H](O[C@@H]2O[C@H](CO)[C@@H](O[C@@H]3O[C@H](CO)[C@@H](O)[C@H](O)[C@H]3O)[C@H](O)[C@H]2O)[C@H]1O	Active	–

More lines, main results first:

Activity [1]	SMILES	also measured
Active	C[C@@H]1O[C@@H](O[C@H]2[C@H](O[C@H]3CC[C@]4(C)[C@H]5CC=C6[C@@H]7CC(C)(C)CC[C@]7(C(=O)O[C@@H]7O[C@H](CO[C@@H]8O[C@H](CO)[C@@H](O)[C@H](O)[C@H]8O)[C@@H](O)[C@H](O)[C@H]7O)CC[C@@]6(C)[C@]5(C)CC[C@H]4C3(C)C)OC[C@@H](O)[C@@H]2O)[C@H](O)[C@H](O[C@@H]2OC[C@@H](O[C@@H]3O[C@H](CO)[C@@H](O)[C@H](O)[C@H]3O)[C@H](O)[C@H]2O)[C@H]1O	–
Active	C[C@@H]1O[C@@H](O[C@H]2[C@H](O[C@H]3CC[C@]4(C)[C@H]5CC=C6[C@H]7[C@](C(=O)O[C@@H]8O[C@H](CO[C@@H]9O[C@H](CO)[C@@H](O)[C@H](O)[C@H]9O)[C@@H](O)[C@H](O)[C@H]8O)(CC[C@@H](C)[C@@]7(C)O)CC[C@@]6(C)[C@]5(C)CC[C@H]4C3(C)C)OC[C@H](O)[C@@H]2O)[C@H](O)[C@H](O[C@@H]2O[C@H](CO)[C@@H](O)[C@H](O)[C@H]2O)[C@H]1O	–
Active	C[C@@H]1O[C@@H](O[C@H]2[C@H](O[C@H]3CC[C@]4(C)[C@H]5CC=C6[C@@H]7CC(C)(C)CC[C@]7(C(=O)O[C@@H]7O[C@H](CO[C@@H]8O[C@H](CO)[C@@H](O)[C@H](O)[C@H]8O)[C@@H](O)[C@H](O)[C@H]7O)CC[C@@]6(C)[C@]5(C)CC[C@H]4C3(C)C)OC[C@@H](O)[C@@H]2O)[C@H](O)[C@H](O[C@@H]2O[C@H](CO)[C@@H](O)[C@H](O)[C@H]2O)[C@H]1O	–

— ChEMBL document CHEMBL1151171, “New biologically active triterpenoid saponins from Scabiosa tschiliensis” (J Nat Prod, 2004)
